Data from patent US12122761B2, “2-azaspiro[3.4]octane derivatives as M4 agonists” (NOVARTIS AG, priority 2019, dated 2024).

Assays:
[1] = biological target: T1, human cloned CHRM4 receptor (M4_CHO cells) (Homo sapiens, UniProt P08173); experiment: CHRM4 Ca++ Flux Assay (agonist mode, FDSS 7000EX); type: cell-based; conditions: for M4 FDSS PA: Percent Activity; for EC50: geometric mean if tested more than once, read-out: M4 FDSS EC50
T1 construct: expressed in transfected cells; host or cells: CHO-K1
T1 sequence (P08173 1-479): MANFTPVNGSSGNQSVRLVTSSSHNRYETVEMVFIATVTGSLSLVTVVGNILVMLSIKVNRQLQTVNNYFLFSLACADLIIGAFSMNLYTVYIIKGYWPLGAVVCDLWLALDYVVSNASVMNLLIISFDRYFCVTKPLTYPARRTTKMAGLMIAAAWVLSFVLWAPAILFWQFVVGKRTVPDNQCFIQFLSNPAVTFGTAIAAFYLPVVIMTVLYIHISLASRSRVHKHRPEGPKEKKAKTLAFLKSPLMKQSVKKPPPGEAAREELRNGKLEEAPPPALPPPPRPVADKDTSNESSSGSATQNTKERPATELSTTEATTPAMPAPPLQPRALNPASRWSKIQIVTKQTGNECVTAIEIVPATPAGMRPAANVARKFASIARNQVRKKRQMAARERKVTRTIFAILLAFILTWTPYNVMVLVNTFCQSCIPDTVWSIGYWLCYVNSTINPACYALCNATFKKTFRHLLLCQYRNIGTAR
Experimental: (§1) The above examples were characterized by measuring the intracellular mobilization of Ca++ ions caused by signaling events mediated by the receptor. The Intra-cellular Calcium flux levels were captured by the highly sensitive Ca++ indicator, Calcium Assay Kit (BD Biosciences, Catalog Number 640178). The fluorescent activity from all receptors were monitored by the fluorescent imager, FDSS 7000EX (Hamamatsu) over a span of 3 minutes.
CHO-K1 cells stably expressing the human cloned CHRM4 receptor (M4_CHO cells) were grown and maintained in a monolayer culture with F12/HAM (Life Technologies) supplemented with 10% Fetal Bovine Serum, 1× Pen-Strep, and 0.4 mg/mL Geneticin in a humidified atmosphere (5% CO2) at 37° C. The cultures were grown to 80-90% confluency in T150 flasks (Corning) and washed with 1×DPBS then lifted with 0.05% Trypsin (Life Technologies). The cells were harvested in growth media then spun (1K rpm, 3 minutes) and cryopreserved using Recovery Cell Culture Freezing Media (Gibco Technologies). Cells were stored in liquid nitrogen and thawed a day before the assay.
Prior to the day of the assay, stable M4_CHO cells were thawed and plated on 384 well black walled clear bottom TC treated plates (Greiner Cat #781091) at 12K cells/well using F12/HAM Media supplemented with 10% FBS (Life Technologies) and kept overnight in a humidified atmosphere (5% CO2) at 37° C. The next day, cells were loaded with […] Ca^++ dye (BD Biosciences) using Loading Buffer (HBSS +Ca/+Mg, 20 mM HEPES, 2.5 mM Probenecid) and placed back in cell incubator for a minimum of 1 hour. After incubation, the dye was replaced with 45 μL Assay Buffer (HBSS −Ca/−Mg, 20 mM HEPES, 2.5 mM Probenecid) supplemented with 20 μM ATP (Sigma Aldrich) and kept at room temperature in the dark for 60 minutes before running on a cell imager. The FDSS 7000EX (Hamamatsu) was used to capture Ca^++ traces for a span of 3 minutes from cells treated with 11 point dose of compound in triplicate in order to generate dose response curves in agonist mode. All compounds were serially diluted in DMSO then prepared in Assay Buffer for Ca^++ flux studies. The dose response curves were generated from the average of triplicate wells obtained from each data point and used a non-linear regression of four parameter dose response algorithm. The Percent Activity (PA) was measured to EC100 of Carbachol.

[2] = biological target: T2, Cloned human M1 receptor (CHRM1) stably expressed in HEK293 cells (Homo sapiens, UniProt P11229); experiment: CHRM1 Ca++ Flux Assay (agonist mode, FDSS 7000EX); type: cell-based; conditions: for M1 FDSS PA: Percent Activity; for EC50: geometric mean if tested more than once
T2 construct: expressed in transfected cells; host or cells: HEK293
T2 sequence (P11229 1-460): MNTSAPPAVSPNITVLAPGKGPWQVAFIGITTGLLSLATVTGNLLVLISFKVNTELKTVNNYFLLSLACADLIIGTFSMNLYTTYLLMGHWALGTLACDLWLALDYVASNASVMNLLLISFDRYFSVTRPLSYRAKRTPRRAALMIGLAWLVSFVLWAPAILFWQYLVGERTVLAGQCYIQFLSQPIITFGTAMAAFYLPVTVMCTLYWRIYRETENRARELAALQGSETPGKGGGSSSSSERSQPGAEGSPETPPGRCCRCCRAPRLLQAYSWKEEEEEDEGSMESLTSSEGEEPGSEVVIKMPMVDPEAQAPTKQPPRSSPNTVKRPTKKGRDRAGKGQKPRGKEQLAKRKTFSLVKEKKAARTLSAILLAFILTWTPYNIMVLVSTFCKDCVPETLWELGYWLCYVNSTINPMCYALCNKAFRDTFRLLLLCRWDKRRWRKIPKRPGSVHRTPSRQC
Experimental: as §1
Cloned human M1 receptor (CHRM1) was stably expressed in HEK293 cells and were grown and maintained in a monolayer culture with DMEM/High Glucose (Life Technologies) supplemented with 10% Fetal Bovine Serum, 1× Pen-Strep, and 0.5 mg/mL Geneticin in a humidified atmosphere (5% CO2) at 37° C. The cultures were grown to 90% confluency in T150 flasks (Corning) and washed with 1×DPBS and lifted with 0.05% Trypsin (Life Technologies). The cells were then spun (1K rpm, 3 minutes) and frozen using Recovery Cell Culture Freezing Media (Gibco Technologies). Cells were stored in liquid nitrogen and thawed a day before the assay.
Prior to the day of the assay, stable HEK293 M1 cells were thawed and plated on 384 well black walled clear bottom TC treated plates (Greiner Cat #781091) at 25K cells/well with DMEM/High Glucose supplemented with 10% FBS (Hyclone) Pen-Strep (Life Technologies) and kept overnight in a humidified atmosphere (5% CO2) at 37° C. The following day, cells were loaded with 20 uL Ca^++ dye (BD Biosciences) using Loading Buffer (HBSS +Ca/+Mg, 20 mM HEPES) and placed back in cell incubator for a minimum of 1 hour. The dye was replaced with 45 μL Assay Buffer (HBSS −Ca/−Mg, 20 mM HEPES) and kept at room temperature prior to running on cell imager. Compounds were prepared in Assay Buffer and 5 uL was added to the cells. The FDSS 7000EX (Hamamatsu) was used to acquire Ca++ traces for 3 minutes from cells treated with 11 point dose in triplicate in order to generate dose response curves in agonist mode. All compounds were serially diluted in DMSO then prepared in Assay Buffer for Ca^++ flux studies. The dose response curves were generated from the average of triplicate wells obtained from each data point and used a non-linear regression of four parameter dose response algorithm. The Percent Activity (PA) was measured to EC100 of Carbachol.

SMILES	M4 FDSS PA [1]	EC50 [1]	M1 FDSS PA [2]	EC50 [2]
Cc1nnc(COc2ccccc2C2CCN([C@@H]3CCC4(C3)CN(C(=O)C3(F)CC3)C4)CC2)o1 (single isomer, unassigned) [Example 7W, (R)-(1-fluorocyclopropyl)(6-(4-(2-((5-methyl-1,3,4-oxadiazol-2-yl)methoxy)phenyl)piperidin-1-yl)-2-azaspiro[3.4]octan-2-yl)methanone or (S)-(1-fluorocyclopropyl)(6-(4-(2-((5-methyl-1,3,4-oxadiazol-2-yl)methoxy)phenyl)piperidin-1-yl)-2-azaspiro[3.4]octan-2-yl)methanone]	67%	< 0.4 nM	80%	2 nM
Cc1nc(COc2ccccc2C2CCN([C@@H]3CCC4(C3)CN(C(=O)C3(F)CC3)C4)CC2)no1 (single isomer, unassigned) [Example 7X, (R)-(1-fluorocyclopropyl)(6-(4-(2-((5-methyl-1,2,4-oxadiazol-3-yl)methoxy)phenyl)piperidin-1-yl)-2-azaspiro[3.4]octan-2-yl)methanone or (S)-(1-fluorocyclopropyl)(6-(4-(2-((5-methyl-1,2,4-oxadiazol-3-yl)methoxy)phenyl)piperidin-1-yl)-2-azaspiro[3.4]octan-2-yl)methanone]	66%	< 0.4 nM	86%	3 nM
Cc1nnc(COc2ccccc2C2CCN([C@@H]3CCC4(C3)CN(C(=O)C3(F)CC3)C4)CC2)o1 (single isomer, unassigned) [Example 7Y, (R)-(1-fluorocyclopropyl)(6-(4-(2-((5-methyl-1,3,4-oxadiazol-2-yl)methoxy)phenyl)piperidin-1-yl)-2-azaspiro[3.4]octan-2-yl)methanone or (S)-(1-fluorocyclopropyl)(6-(4-(2-((5-methyl-1,3,4-oxadiazol-2-yl)methoxy)phenyl)piperidin-1-yl)-2-azaspiro[3.4]octan-2-yl)methanone]	49%	22 nM	67%	246 nM
Cc1nc(COc2ccccc2C2CCN([C@@H]3CCC4(C3)CN(C(=O)C3(F)CC3)C4)CC2)no1 (single isomer, unassigned) [Example 7Z, (R)-(1-fluorocyclopropyl)(6-(4-(2-((5-methyl-1,2,4-oxadiazol-3-yl)methoxy)phenyl)piperidin-1-yl)-2-azaspiro[3.4]octan-2-yl)methanone or (S)-(1-fluorocyclopropyl)(6-(4-(2-((5-methyl-1,2,4-oxadiazol-3-yl)methoxy)phenyl)piperidin-1-yl)-2-azaspiro[3.4]octan-2-yl)methanone]	50%	9 nM	77%	211 nM
COc1ccc(Cl)cc1C1CCN([C@H]2CCC3(C2)CN(C(=O)C2(F)CC2)C3)CC1 (single isomer, unassigned) [Example 8A, (S)-(6-(4-(5-chloro-2-methoxyphenyl)piperidin-1-yl)-2-azaspiro[3.4]octan-2-yl)(1-fluorocyclopropyl)methanone or (R)-(6-(4-(5-chloro-2-methoxyphenyl)piperidin-1-yl)-2-azaspiro[3.4]octan-2-yl)(1-fluorocyclopropyl)methanone]	43%	36 nM	16%	438 nM
COc1ccc(Cl)cc1C1CCN([C@H]2CCC3(C2)CN(C(=O)C2(F)CC2)C3)CC1 (single isomer, unassigned) [Example 8B, (S)-(6-(4-(5-chloro-2-methoxyphenyl)piperidin-1-yl)-2-azaspiro[3.4]octan-2-yl)(1-fluorocyclopropyl)methanone or (R)-(6-(4-(5-chloro-2-methoxyphenyl)piperidin-1-yl)-2-azaspiro[3.4]octan-2-yl)(1-fluorocyclopropyl)methanone]	64%	1 nM	63%	30 nM
O=C(N1CC2(CC[C@@H](N3CCC(c4ccccc4OC(F)(F)F)CC3)C2)C1)C1(F)CC1 (single isomer, unassigned) [Example 9A, (R)-(1-fluorocyclopropyl)(6-(4-(2-(trifluoromethoxy)phenyl)piperidin-1-yl)-2-azaspiro[3.4]octan-2-yl)methanone or (S)-(1-fluorocyclopropyl)(6-(4-(2-(trifluoromethoxy)phenyl)piperidin-1-yl)-2-azaspiro[3.4]octan-2-yl)methanone]	36%	342 nM	43%	2650 nM
O=C(N1CC2(CC[C@@H](N3CCC(c4ccccc4OC(F)(F)F)CC3)C2)C1)C1(F)CC1 (single isomer, unassigned) [Example 9B, (R)-(1-fluorocyclopropyl)(6-(4-(2-(trifluoromethoxy)phenyl)piperidin-1-yl)-2-azaspiro[3.4]octan-2-yl)methanone or (S)-(1-fluorocyclopropyl)(6-(4-(2-(trifluoromethoxy)phenyl)piperidin-1-yl)-2-azaspiro[3.4]octan-2-yl)methanone]	66%	5 nM	55%	47 nM
O=C(N1CC2(CC[C@@H](N3CCC(c4cc(F)ccc4OC4CCOCC4)CC3)C2)C1)C1(F)CC1 (single isomer, unassigned) [Example 9C, (R)-(6-(4-(5-fluoro-2-((tetrahydro-2H-pyran-4-yl)oxy)phenyl)piperidin-1-yl)-2-azaspiro[3.4]octan-2-yl)(1-fluorocyclopropyl)methanone or (S)-(6-(4-(5-fluoro-2-((tetrahydro-2H-pyran-4-yl)oxy)phenyl)piperidin-1-yl)-2-azaspiro[3.4]octan-2-yl)(1-fluorocyclopropyl)methanone]	54%	1 nM	27%	48 nM
